Measured values reported in PubChem BioAssay AID1963958 (Molecular Pharmacology Branch, DTP, NCI, 2024).

System: MDA-MB-231 multicell spheroids, viability
Assay: Anticancer human tumor MDA-MB-231 cell line growth inhibition [PI3K];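 further: spheroids exposed to agents for seven days before reading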;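 on viability, T/C: percent of vehicle control luminescence with DMSO treated spheroids as 100%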
Conditions: for IC50: curve of first compound; for viability, T/C: stronger effect = lower value; active means viability on the fitted dose curve at most 10% of control; inactive means the rest
Text: Combinatorial screen of targeted agents with the PI3K inhibitors inavolisib, alpelisib, duvelisib, and copanlisib in multi-cell type tumor spheroids
A high-throughput screen of multi-cell type tumor spheroids was designed to identify active combinations of targeted small molecules and PI3K pathway inhibitors. Complex spheroids include a stromal component modeled by human endothelial cells (HUVEC) and fibroblasts modeled by human mesenchymal stem cells (MSCs). The concentration ranges selected for each drug and investigational agent were based upon clinically achievable concentrations if the clinical Cmax of the agent was known.
Compounds. The drugs and investigational agents: inavolisib (NSC800729), alpelisib (NSC765974), duvelisib (NSC772469), copanlisib (NSC816437), ipatasertib (NSC767898), afuresertib (NSC778305), talazoparib (NSC767125), sapanisertib (NSC764658), selumetinib (NSC741078), tovorafenib (DAY101, NSC766906), vemurafenib (NSC761431), ravoxertinib (NSC781343), sotorasib (NSC818433), MRTX1133 (NSC 836407), abemaciclib (NSC 768073), palbociclib (NSC758247), venetoclax (NSC 766270), SY5609 (NSC837396), enzalutamide (NSC755605), and darolutamide (NSC825331), were obtained from the National Cancer Institute (NCI) Developmental Therapeutics Program Chemical Repository. The FDA-approved anticancer drug set is available from the NCI Developmental Therapeutics Program. […] The stock solutions were prepared in dimethyl sulfoxide (DMSO, Sigma-Aldrich, St. Louis, MO, cat. D2650) at 800-fold the tested concentration and stored at -70 degrees C prior to their use. All drugs and investigational agents were tested over a range starting from a high concentration at or near the clinical Cmax and decreasing in half-log increments. If the clinical Cmax for an agent had not been determined, the highest concentration tested was 10 microM.
Cell Culture. All cells were maintained in an incubator at 37 degrees C and 5% CO2 with 95% humidity. The PDC lines were cultured according to standard operating procedures established by the NCI PDMR (https://pdmr.cancer.gov/sops/default.htm). All PDCs were thawed and cultured in Matrigel-coated flasks prepared with a working solution of 1X Ham's F-12 nutrient mix, without supplementation (Invitrogen, Waltham, MA, cat. 11765054), 100 U/mL penicillin-streptomycin (Invitrogen, cat. 15140122), and 2.5% Matrigel (Corning Inc., Corning, NY, cat. 354248) for the first three passages. The 354836-022-R-J1-PDC, 475296-252-R-J1-PDC, and 997726-040-R-J2-PDC lines were cultured in 6A media, which includes advanced DMEM/F-12 (Thermo Fisher Scientific, cat. 12634028), 10 mM HEPES (Thermo Fisher Scientific, cat. 15630080), 1X GlutaMAX supplement (Thermo Fisher Scientific, cat. 35050061), 0.1 mg/mL primocin (InvivoGen, San Diego, CA, cat. ant-pm-2), 10% defined fetal bovine serum, heat inactivated (HyClone Laboratories Inc., Logan, UT, cat. SH30070.03HI), 50% L-WRN conditioned media (ATCC, cat. CRL-3276), 1.25 mM N-Acetyl-L-cysteine (Sigma-Aldrich, cat. A9165), 10 mM nicotinamide (Sigma-Aldrich, cat. N0636), 1X B-27 supplement (Thermo Fisher Scientific, cat. 17504044), 1X N-2 supplement (Thermo Fisher Scientific, cat. 17502048), and 10 microM Y-27632 dihydrochloride (Tocris Bioscience, Bristol, United Kingdom, cat. 1254). The 624824-186-R-J2-PDC line was cultured in 6C/Colon 1B media, which includes all 6A media components plus 50 ng/mL human EGF recombinant protein (Thermo Fisher Scientific, cat. PHG0311). […]

[1] = second compound 0.00316 µM, first compound 0.0316 µM
[2] = second compound 0.00316 µM, first compound 0.1 µM
[3] = second compound 0.00316 µM, first compound 0.316 µM
[4] = second compound 0.00316 µM, first compound 1 µM
[5] = second compound 0.00316 µM, first compound 3.16 µM
[6] = second compound 0.00316 µM, first compound 10 µM
[7] = second compound 0.01 µM, first compound 0.0316 µM
[8] = second compound 0.01 µM, first compound 0.1 µM
[9] = second compound 0.01 µM, first compound 0.316 µM
[10] = second compound 0.01 µM, first compound 1 µM
[11] = second compound 0.01 µM, first compound 3.16 µM
[12] = second compound 0.01 µM, first compound 10 µM
[13] = second compound 0.0316 µM, first compound 0.0316 µM
[14] = second compound 0.0316 µM, first compound 0.1 µM
[15] = second compound 0.0316 µM, first compound 0.316 µM
[16] = second compound 0.0316 µM, first compound 1 µM
[17] = second compound 0.0316 µM, first compound 3.16 µM
[18] = second compound 0.0316 µM, first compound 10 µM
[19] = second compound 0.1 µM, first compound 0.0316 µM
[20] = second compound 0.1 µM, first compound 0.1 µM
[21] = second compound 0.1 µM, first compound 0.316 µM
[22] = second compound 0.1 µM, first compound 1 µM
[23] = second compound 0.1 µM, first compound 3.16 µM
[24] = second compound 0.1 µM, first compound 10 µM
[25] = second compound 0.316 µM, first compound 0.0316 µM
[26] = second compound 0.316 µM, first compound 0.1 µM
[27] = second compound 0.316 µM, first compound 0.316 µM
[28] = second compound 0.316 µM, first compound 1 µM
[29] = second compound 0.316 µM, first compound 3.16 µM
[30] = second compound 0.316 µM, first compound 10 µM
[31] = second compound 1 µM, first compound 0.0316 µM
[32] = second compound 1 µM, first compound 0.1 µM
[33] = second compound 1 µM, first compound 0.316 µM
[34] = second compound 1 µM, first compound 1 µM
[35] = second compound 1 µM, first compound 3.16 µM
[36] = second compound 1 µM, first compound 10 µM

CC(C)NCC(C(=O)N1CCN(c2ncnc3c2C(C)CC3O)CC1)c1ccc(Cl)cc1 (stereo unspecified) + CC(Nc1ccc2c(c1)OCCn1cc(N3C(=O)OCC3C(F)F)nc1-2)C(N)=O
5.1 µM: IC50 (second compound 0.0316 µM)
inactive: viability, T/C [1] 95.8% | viability, T/C [2] 94.6% | viability, T/C [3] 99.3% | viability, T/C [4] 86.6% | viability, T/C [5] 67.1% | viability, T/C [6] 42.5% | viability, T/C [7] 87.5% | viability, T/C [8] 93.1% | viability, T/C [9] 81.8% | viability, T/C [10] 81.6% | viability, T/C [11] 60.1% | viability, T/C [12] 45.2% | viability, T/C [13] 86.6% | viability, T/C [14] 84.1% | viability, T/C [15] 72.7% | viability, T/C [16] 71.4% | viability, T/C [17] 56.8% | viability, T/C [18] 39.9% | viability, T/C [19] 71.6% | viability, T/C [20] 72.8% | viability, T/C [21] 67.7% | viability, T/C [22] 63.5% | viability, T/C [23] 54.5% | viability, T/C [24] 38.2% | viability, T/C [25] 66.2% | viability, T/C [26] 63.7% | viability, T/C [27] 59.7% | viability, T/C [28] 61.6% | viability, T/C [29] 47.2% | viability, T/C [30] 30.8% | viability, T/C [31] 64% | viability, T/C [32] 61.3% | viability, T/C [33] 58.9% | viability, T/C [34] 52.9% | viability, T/C [35] 48.3% | viability, T/C [36] 34.9%
6.95 µM: IC50 (second compound 0.01 µM)
1.92 µM: IC50 (second compound 1 µM)
2.69 µM: IC50 (second compound 0.316 µM)
4.31 µM: IC50 (second compound 0.1 µM)
7.03 µM: IC50 (second compound 0.00316 µM)

CCN1CCN(Cc2ccc(Nc3ncc(F)c(-c4cc(F)c5nc(C)n(C(C)C)c5c4)n3)nc2)CC1 + CC(Nc1ccc2c(c1)OCCn1cc(N3C(=O)OCC3C(F)F)nc1-2)C(N)=O
0.0214 µM: IC50 (second compound 0.316 µM)
0.0244 µM: IC50 (second compound 0.1 µM)
0.02 µM: IC50 (second compound 1 µM)
0.0792 µM: IC50 (second compound 0.01 µM)
0.0532 µM: IC50 (second compound 0.0316 µM)
inactive: viability, T/C (second compound 0.00316 µM, first compound 0.00316 µM) 90.8% | viability, T/C (second compound 0.00316 µM, first compound 0.01 µM) 103% | viability, T/C [1] 76% | viability, T/C [2] 54.5% | viability, T/C [3] 41.9% | viability, T/C [4] 44.9% | viability, T/C (second compound 0.01 µM, first compound 0.00316 µM) 92.7% | viability, T/C (second compound 0.01 µM, first compound 0.01 µM) 96.3% | viability, T/C [7] 65.7% | viability, T/C [8] 50.1% | viability, T/C [9] 40.6% | viability, T/C [10] 47% | viability, T/C (second compound 0.0316 µM, first compound 0.00316 µM) 80.2% | viability, T/C (second compound 0.0316 µM, first compound 0.01 µM) 84.3% | viability, T/C [13] 57.4% | viability, T/C [14] 42.6% | viability, T/C [15] 35% | viability, T/C [16] 45.5% | viability, T/C (second compound 0.1 µM, first compound 0.00316 µM) 69.5% | viability, T/C (second compound 0.1 µM, first compound 0.01 µM) 70.4% | viability, T/C [19] 44.2% | viability, T/C [20] 37.1% | viability, T/C [21] 33.3% | viability, T/C [22] 43.8% | viability, T/C (second compound 0.316 µM, first compound 0.00316 µM) 63.4% | viability, T/C (second compound 0.316 µM, first compound 0.01 µM) 62.8% | viability, T/C [25] 43.4% | viability, T/C [26] 36.5% | viability, T/C [27] 35.4% | viability, T/C [28] 43.5% | viability, T/C (second compound 1 µM, first compound 0.00316 µM) 60.1% | viability, T/C (second compound 1 µM, first compound 0.01 µM) 64.8% | viability, T/C [31] 41.7% | viability, T/C [32] 34.5% | viability, T/C [33] 34.4% | viability, T/C [34] 39.1%
0.131 µM: IC50 (second compound 0.00316 µM)

Cn1ncc(Cl)c1-c1cc(C(=O)NC(CN)Cc2cccc(F)c2)sc1Cl (stereo unspecified) + CC(Nc1ccc2c(c1)OCCn1cc(N3C(=O)OCC3C(F)F)nc1-2)C(N)=O
2.61 µM: IC50 (second compound 0.01 µM)
0.665 µM: IC50 (second compound 1 µM)
1.54 µM: IC50 (second compound 0.0316 µM)
1.26 µM: IC50 (second compound 0.1 µM)
inactive: viability, T/C [1] 95.7% | viability, T/C [2] 94.2% | viability, T/C [3] 91.2% | viability, T/C [4] 73.4% | viability, T/C [5] 46.9% | viability, T/C [6] 25.3% | viability, T/C [7] 91.5% | viability, T/C [8] 95.2% | viability, T/C [9] 80.7% | viability, T/C [10] 70.5% | viability, T/C [11] 45.9% | viability, T/C [12] 22.8% | viability, T/C [13] 76.4% | viability, T/C [14] 75.2% | viability, T/C [15] 70.1% | viability, T/C [16] 58.3% | viability, T/C [17] 36.6% | viability, T/C [18] 24.1% | viability, T/C [19] 71.4% | viability, T/C [20] 68.8% | viability, T/C [21] 62.9% | viability, T/C [22] 55.6% | viability, T/C [23] 34.5% | viability, T/C [24] 22% | viability, T/C [25] 66.4% | viability, T/C [26] 59.7% | viability, T/C [27] 59.7% | viability, T/C [28] 53.4% | viability, T/C [29] 36.8% | viability, T/C [30] 21% | viability, T/C [31] 58.9% | viability, T/C [32] 56.9% | viability, T/C [33] 55.1% | viability, T/C [34] 46.8% | viability, T/C [35] 36.9% | viability, T/C [36] 18.9%
1.18 µM: IC50 (second compound 0.316 µM)
2.72 µM: IC50 (second compound 0.00316 µM)
